Laboratory results taken from PubChem BioAssay AID1508591.

Conditions: rat; liver microsomes; pH 7.4; 15.0 min; 1.0 µM

| SMILES | half-life [min] |
| --- | --- |
| O=C(C=Cc1cccnc1)NCCCCC1CCN(C(=O)c2ccccc2)CC1 | 12.2 |
| COCCCOc1ccnc(CS(=O)c2nc3ccccc3[nH]2)c1C (stereo not drawn) | 8.83 |
| COc1ccc(/C=C2/C(=O)Nc3ccccc32)cc1O | > 30 |
| O=C(Nc1ncc(Cc2ccc(C(F)(F)F)cc2)s1)c1cnc(-c2ccccc2)[nH]1 | > 30 |
| NC(=O)COc1cccc(C2CC(=O)Nc3nc(N4CCCCC4)sc32)c1 (stereo not drawn) | 5.1 |
| CC[C@@](C)(Nc1ccnc(-c2c[nH]c3ncccc23)n1)C(=O)NCC(F)(F)F | 27.8 |
| O=C(O)c1cccc(-n2cccc2/C=C2/NC(=O)N(c3cccc(Cl)c3)C2=O)c1 | > 30 |
| NC(=O)C1CCN(c2nc(-c3ccccc3N)cs2)CC1 | 25.3 |
| Cc1c(CN(C)c2cc(C3CC(O)C3)nc(N)n2)[nH]c2ccccc12 (stereo not drawn) | 15 |
| N[C@@H](CSCc1ccccc1)C(=O)O | > 30 |
| N#CC1CCN(c2nc(-c3ccc(Br)cc3)cs2)CC1 | 24.7 |
| Fc1ccc(-c2csc3ncnc(Sc4nnnn4C4CC4)c23)cc1 | 4.2 |
| CCCCCn1c(=O)[nH]c2cc(C(=O)NCCCN3CCCCC3)ccc2c1=O | > 30 |
| O=C1CCc2cc(S(=O)(=O)Nc3ccc(F)c(Cl)c3)c(F)cc2N1 | 16.8 |
| Cc1ccc(CNc2nc(-c3ccccc3C(F)(F)F)nc3ccccc23)s1 | 1.7 |
| O=C(Nc1nc(-c2ccccc2)cs1)c1ccccc1[N+](=O)[O-] | 17 |
| O=C1CCCC2=C1C(c1[nH]ncc1Cl)N=C(Nc1nc3c(Cl)cccc3o1)N2 (stereo not drawn) | 3.4 |
| O=C(O)c1c(Sc2ccccc2)c2cc(Cl)ccc2n1Cc1ccc(Cl)cc1 | 26.6 |
| O=C(NCCc1nc2ccccc2n1CCO)C1CCCCC1 | 20.3 |
| CC(C)(Nc1nc(-c2ccccc2C(F)(F)F)nc2ccccc12)c1ccc(-c2cccc(C(F)(F)F)c2)cc1 | > 30 |
| CCCN1CNc2c(c(=O)[nH]c(=S)n2CCc2cccc(Cl)c2Cl)C1 | 2.47 |
| Cc1cccc([C@H]2[C@@H]3C=CC[C@@H](C)[C@@H]3C(=O)N2Cc2ccccc2)c1 | 1.4 |
| CCN(CC)S(=O)(=O)c1cccc(C(=O)Nc2ccc(C#N)cc2)c1 | 3.8 |

| SMILES | half-life [min] |
| --- | --- |
| Cc1noc(C)c1Cc1ccc(C(=O)N2CCc3c(nc4cc(-c5ccccc5)[nH]n4c3=O)C2)o1 | 3.38 |
| COc1ccc(-c2cnc(N3CCC(C(N)=O)CC3)s2)cc1OC | > 30 |
| Cc1ccc(S(=O)(=O)Nc2cc(F)ccc2C(=O)Nc2nc(-c3ccccc3)cs2)cc1 | 5.6 |
| CC1CCN(S(=O)(=O)c2ccc3c(c2)C(C)(C)C(=O)N3CC(=O)NCc2ccco2)CC1 | 1.8 |
| CCc1ccc2ncc(C(=O)c3ccc(C)c(C)c3)c(N3CCC(C(N)=O)CC3)c2c1 | 1.47 |
| O=C1CCCC2=C1C(c1[nH]ncc1Cl)N=C(Nc1nc3ccccc3o1)N2 (stereo not drawn) | 13.5 |
| Cn1nnnc1Sc1ncnc2scc(-c3cccc(S(C)(=O)=O)c3)c12 | > 30 |
| Cc1ccc(S(=O)(=O)Nc2cnccc2C(=O)Nc2nc(-c3ccc(-c4ccccc4)cc3)cs2)cc1 | > 30 |
| Brc1ccc(-c2csc(N3CCC(c4nn[nH]n4)CC3)n2)cc1 | > 30 |
| CC(=O)c1c(C)[nH]c(C(=O)Nc2cccc(S(=O)(=O)Nc3ccc(Br)c(F)c3)c2)c1C | 17 |
| Brc1ccc(-c2csc(N3CCNCC3)n2)cc1 | 3.31 |
| O=C(NCc1ccccc1)c1cn2cc(-c3ccccc3)sc2n1 | 24 |
| CCc1ccc2oc(NC3=NC(c4[nH]ncc4Cl)C4=C(CCCC4=O)N3)nc2c1 (stereo not drawn) | 22 |
| Cc1ccc(C(=O)N2CCc3sc(C(=O)NC(C)c4ccccc4)cc3C2)cc1 (stereo not drawn) | 4.79 |
| CC(C(O)c1ccc(O)cc1)N1CCC(Cc2ccccc2)CC1 (stereo not drawn) | 2.55 |
| CCN(CC)C(=O)N1c2ccccc2C=Cc2ccccc21 | 1.07 |
| Cc1ccc(CC(=O)Nc2nc(-c3ccc4c(c3)CCN4C(=O)c3ccccc3C)c(C)s2)cc1C | 19 |
| Cc1ccc(SC2=NS(=O)(=O)c3ccccc32)c(C)c1 | 1.54 |
| CCOC(=O)c1c[nH]c2c3c(ccc2c1=O)CCCC3 | 20.4 |
| C=CCc1ccc(O)c(-c2ccc(O)c(CC=C)c2)c1 | 2.36 |
| CS(=O)(=O)c1ccc(-c2csc(N3CCC(C(N)=O)CC3)n2)cc1 | > 30 |
| O=C(Nc1cccc(F)c1)c1cc(-c2ccc[nH]2)n[nH]1 | 9.45 |
| Cn1cnc2c(F)c(Nc3ccc(Br)cc3Cl)c(C(=O)NOCCO)cc21 | > 30 |

| SMILES | half-life [min] |
| --- | --- |
| O=C1Nc2ccccc2/C1=C\c1ccc(O)cc1 | 14 |
| CCn1c(C(=O)N2CCCC(C(=O)NCCc3ccc(C)cc3)C2)cc2sccc21 (stereo not drawn) | 1.7 |
| Cc1cc(C)nc(NC(=S)N2CCN(c3nccc(C(F)(F)F)n3)CC2)c1 | 16 |
| CNc1nc(-c2cccc3ccccc23)ccc1C#N | 5.7 |
| CCCC1=Nc2cc(C(=O)NC3CCCCC3)ccc2Sc2ccc(C)cc21 | 1.48 |
| O=C(Nc1nc(-c2ccccc2)cs1)c1ccncc1NS(=O)(=O)c1ccc(C(F)(F)F)cc1 | 20 |
| COc1ncc(-c2ccc3c(Nc4cc(Oc5cc(F)cc(F)c5)cc(C(=O)O)c4)c(S(=O)(=O)NC4CC4)cnc3c2)c(OC)n1 | 9.87 |
| C=C1c2cccc(O)c2C(O)=C2C(=O)[C@]3(O)C(O)=C(C(N)=O)C(=O)[C@@H](N(C)C)[C@@H]3[C@@H](O)[C@H]12 | > 30 |
| OCCn1cc(-c2cnc3nnn(Cc4ccc5ncccc5c4)c3n2)cn1 | > 30 |
| Cc1ncc2c(c1CNC(=O)Cn1cnc3ccccc3c1=O)CCNC2 | > 30 |
| O=C1Nc2ccccc2/C1=C/c1cc(Cl)c(O)c(Cl)c1 | > 30 |
| Cc1ccc(S(=O)(=O)Nc2cc(Cl)cc(C(=O)Nc3nc(-c4ccccc4)cs3)c2)cc1 | 22 |
| CCC(CC)c1cc([C@H]2CN3CC[C@H]2C[C@@H]3CNC(=O)COc2ccccc2)nc(-c2ccncc2)n1 | 2.38 |
| COc1ccc(C2Nc3ccccc3C(=O)N2Cc2cccnc2)cc1COc1c(C)cc(NC(C)=O)cc1C (stereo not drawn) | 1.8 |
| NC(=O)C1CCN(c2ncc(-c3ccc(Cl)cc3)s2)CC1 | 5.97 |
| Cn1ccc2c(C(=O)NCC3CCC(=O)N3)nc(-c3ccccc3C#N)cc21 (stereo not drawn) | 21.9 |
| CCOC(=O)N1CCN(Cc2nc3c(c(=O)n(C)c(=O)n3C)n2Cc2ccc(F)cc2)CC1 | 8.7 |
| Cc1cc(-c2nnc3n2CCCCC3)c(C)n1-c1ccncc1 | 14 |
| CC(C)Nc1oc(-c2cccc3ccccc23)nc1C#N | 24 |
| CNC1CCC(N(Cc2ccc(OC)c(-c3ccc(C#N)cc3)c2)C(=O)c2sc3ccccc3c2Cl)CC1 (stereo not drawn) | > 30 |
| Cn1nnnc1Sc1ncnc2sccc12 | > 30 |
| COc1cc(NC(=O)c2cc(-c3ccccc3O)no2)cc(OC)c1OC | 12.5 |
| CCc1ccc(NC(=O)c2[nH]c(C)c(C(C)=O)c2C)cc1S(=O)(=O)Nc1cccc(C#N)c1 | 6.1 |

Other lines, results leading:

| half-life [min] | SMILES |
| --- | --- |
| 8.9 | CC(=O)N1CCN(c2ccc(OCc3nn(C)c(C)c3-c3cccc4c(CCCOc5cc(C)c(Cl)c(C)c5)c(C(=O)O)n(Cc5cccnc5)c34)cc2)CC1 |
| 7.81 | Cc1nn2c(c1-c1ccccc1-c1ccccc1)N(Cc1ccc(C(=O)O)s1)CCC2 |
| 5.85 | Cc1cccc(-n2cnc3cc(C(=O)N4CCCCC4)ccc32)c1 |
| 4.2 | O=C(Cc1ccc(Cl)c(Cl)c1)Nc1ccc(S(=O)(=O)Nc2ccccc2)cc1 |
| 3.06 | C=CC(=O)Nc1cccc(Oc2nc(Nc3ccc(N4CCN(C)CC4)cc3)ncc2Cl)c1 |
| > 30 | Cc1ccc(-c2cc(C(=O)Nc3ccncc3)c3ccccc3n2)cc1 |
| 28 | Oc1ccc(Nc2nc(-c3ccncc3)nc3ccccc23)cc1F |
| 1.72 | CN1CCN(c2ccc(Nc3c4ccccc4nc4ccccc34)cc2)CC1 |
| 9.82 | Fc1ccc(Nc2nc(-c3ccncc3)nc3ccccc23)cc1F |
| 2.7 | CC1=C(C(=O)NC2CCCC2)C(c2nn(C)cc2Cl)N=C(Nc2nc3ccccc3o2)N1 (stereo not drawn) |
| 12 | COc1cccc(CNc2ccc(S(=O)(=O)Nc3nc(C)c(C)s3)cc2)c1O |
| 10 | O=C(Cc1ccc(Cl)c(Cl)c1)Nc1ccc(S(=O)(=O)Nc2cccc(O)c2)cc1 |
| 19.4 | CC#CC(=O)N1CCC[C@H]1c1nc(-c2ccc(C(=O)Nc3ccccn3)cc2)c2c(N)nccn12 |
| 21.8 | Oc1cccc(-c2nc(N3CCOCC3)c3oc4ncccc4c3n2)c1 |
| 1.95 | Cc1cc(-c2nnc3n2CCCCC3)c(C)n1-c1cccc(Cl)c1 |
| 2 | CC(C)(C)OC(=O)N[C@@H](Cc1ccc(OS(=O)(=O)c2cccc3cnccc23)cc1)C(=O)N1CCCN(C(=O)OC(C)(C)C)CC1 |
| 1.3 | Cc1cccc(-n2cnc3cc(C(=O)N4CCCC(C(F)(F)F)C4)ccc32)c1 (stereo not drawn) |

| half-life [min] | SMILES |
| --- | --- |
| 5.92 | CC(C)(C)c1ccc(S(=O)(=O)c2cnc(SCC(=O)Nc3ccc(F)c(Cl)c3)[nH]c2=O)cc1 |
| > 30 | COc1cc(-c2nc(Nc3ccc(F)c(F)c3)c3ccccc3n2)c(F)cn1 |
| 3.17 | COc1ccc(CN2CCNc3cc(Nc4ccccc4)ncc3C2)cc1 |
| 2.28 | Fc1ccc(CN2CCNc3cc(Nc4ccccc4)ncc3C2)cc1F |
| 2.42 | Cc1ccc(Nc2nc(NCCO)c3ccccc3n2)cc1C |
| 7.12 | Cc1ccnc(NC(=S)N2CCN(c3cccc(C(F)(F)F)c3)C[C@@H]2C)c1 |
| 5.86 | COc1ccc(C)cc1NC(=O)c1cnc(-c2ccc(F)cc2)nc1-c1ccncc1 |
| 14.3 | Cc1ccc(S(=O)(=O)Nc2cnccc2C(=O)Nc2nc(-c3ccccc3)cs2)cc1 |
| 2.8 | CCc1ccc(NC(=O)c2cc3ncccn3n2)cc1 |
| 5.98 | Cn1cc(S(=O)(=O)N2CCCCCC2)cc1C(=O)Nc1ccc(Cl)c(C(F)(F)F)c1 |
| > 30 | Cc1cc(NS(=O)(=O)c2ccc(C(=O)NCc3ccc(Cl)c(Cl)c3)cc2)no1 |
| > 30 | COc1cccc(-c2nc3cc(NC(=O)c4ccc(C)c([N+](=O)[O-])c4)ccc3o2)c1 |
| 2.84 | CC(C)(C#N)c1ccc(N2C(=O)OCc3cnc4ccc(-c5cnc6ccccc6c5)cc4c32)cc1 |
| 17 | Cc1cc(C)nc(NC(=S)N2CCN(c3cccc([N+](=O)[O-])c3)CC2)c1 |
| 1.7 | Cc1[nH]c2ccccc2c1CN1CCN(c2ccccn2)CC1 |
| > 30 | CC(=O)c1ccc(N2CCN(S(=O)(=O)c3ccc4c(c3)CC(=O)N4)CC2)cc1 |
| > 30 | CC(=O)c1c(C)[nH]c(C(=O)Nc2cccc([S+](=O)([O-])Nc3ccc(C#N)cc3)c2)c1C |
